These are literature values, as cited in patent US20100278900A1, “CHLORINE DIOXIDE BASED GUM AND CANDY” (BASF Corporation, priority 2009, published 2010).

For this data set the following is noted: in the absence of traditional abrasives.

Consider `[O][Cl+][O-]` [chlorine dioxide], for which the polishing effect entry is given as “polishing effect”.
